Reference: PubChem BioAssay AID330 (DTP/NCI, 2004)
Inconclusive results and toxic doses are left out.

Tested on: P388 leukemia ip, CD2F1 mice, survival T/C
Experiment: NCI In Vivo Anticancer Drug Screen. Data for tumor model P388 Leukemia (intraperitoneal) in CD2F1 (CDF1) mice
Settings: endpoint: median survival time, higher = longer survival
Summary of the method: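 Mice carrying the transplanted tumor received test compound or vehicle. Survival was recorded in each group, and the value is the treated-group measurement divided by that of the vehicle-treated control group.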

[1] = dose: 25.0 mg/kg/injection, schedule: Q01DX005 (ip), vehicle: saline with Tween-80
[2] = dose: 50.0 mg/kg/injection, schedule: Q01DX005 (ip), vehicle: saline with Tween-80
[3] = dose: 100.0 mg/kg/injection, schedule: Q01DX005 (ip), vehicle: saline with Tween-80
[4] = dose: 6.25 mg/kg/injection, schedule: Q01DX009 (ip), vehicle: saline
[5] = dose: 12.5 mg/kg/injection, schedule: Q01DX009 (ip), vehicle: saline
[6] = dose: 50.0 mg/kg/injection, schedule: Q01DX009 (ip), vehicle: Klucel (hydroxypropylcellulose) (HPC)
[7] = dose: 100.0 mg/kg/injection, schedule: Q01DX009 (ip), vehicle: Klucel (hydroxypropylcellulose) (HPC)
[8] = dose: 200.0 mg/kg/injection, schedule: Q01DX009 (ip), vehicle: Klucel (hydroxypropylcellulose) (HPC)

## C=CCn1nc([O-])[n+]2ccccc12
dose: 100.0 mg/kg/injection, schedule: Q01DX001 (ip), vehicle: saline
  T/C: 95 % of control
dose: 200.0 mg/kg/injection, schedule: Q01DX001 (ip), vehicle: saline
  T/C: 95 % of control
dose: 400.0 mg/kg/injection, schedule: Q01DX001 (ip), vehicle: saline
  T/C: 104 % of control

## CN(C)c1ccc(/C=N/NC(N)=S)nc1
dose: 50.0 mg/kg/injection, schedule: Q04DX003 (ip), vehicle: saline with Tween-80
  T/C: 150 % of control

## O=C1/C(=C\c2ccccc2)SC(=S)N1c1cccc(Br)c1
[1]
  T/C: 87 % of control
[2]
  T/C: 97 % of control
[3]
  T/C: 106 % of control

## CCCOc1cc2c(cc1C(C)(C)c1ccccc1)OCO2
[2]
  T/C: 95 % of control
[3]
  T/C: 100 % of control

## CNc1onc(C)c1C
dose: 50.0 mg/kg/injection, schedule: Q01DX009 (ip), vehicle: saline with Tween-80
  T/C: 103 % of control
dose: 100.0 mg/kg/injection, schedule: Q01DX009 (ip), vehicle: saline with Tween-80
  T/C: 105 % of control
dose: 200.0 mg/kg/injection, schedule: Q01DX009 (ip), vehicle: saline with Tween-80
  T/C: 100 % of control

## CNC1C(=O)C(C)C(O)(C(CC(C)C(O)/C=C/C=C/CNC(=O)C(C)(C)C(O)\C(C)=C/C=C\C=C\Cc2cnc(C)o2)OC)C12C(=O)OC2COC (stereo not drawn) (tested in a mixture with another compound)
dose: 1.0 mg/kg/injection, schedule: Q01DX005 (ip), vehicle: DMSO
  T/C: 104 % of control
dose: 2.0 mg/kg/injection, schedule: Q01DX005 (ip), vehicle: DMSO
  T/C: 93 % of control

## Fc1cccc2c(C#Cc3ccccc3)c3ccccc3c(C#Cc3ccccc3)c12
dose: 1.5 mg/kg/injection, schedule: Q01DX005 (ip), vehicle: saline with Tween-80
  T/C: 100 % of control
dose: 3.0 mg/kg/injection, schedule: Q01DX005 (ip), vehicle: saline with Tween-80
  T/C: 100 % of control
dose: 6.0 mg/kg/injection, schedule: Q01DX005 (ip), vehicle: saline with Tween-80
  T/C: 97 % of control
[1]
  T/C: 92 % of control
[3]
  T/C: 94 % of control
dose: 200.0 mg/kg/injection, schedule: Q01DX005 (ip), vehicle: saline with Tween-80
  T/C: 87 % of control

## CC1=Nc2ccccc2C(=O)NN1
dose: 100.0 mg/kg/injection, schedule: Q04DX002 (ip), vehicle: saline with Tween-80
  T/C: 101 % of control
dose: 200.0 mg/kg/injection, schedule: Q04DX002 (ip), vehicle: saline with Tween-80
  T/C: 101 % of control
dose: 400.0 mg/kg/injection, schedule: Q04DX002 (ip), vehicle: saline with Tween-80
  T/C: 102 % of control

## CC1=COC(C)(C2NC(C)(C)CC(C)O2)CC1 (stereo not drawn)
dose: 50.0 mg/kg/injection, schedule: Q01DX005 (ip), vehicle: saline
  T/C: 107 % of control
dose: 100.0 mg/kg/injection, schedule: Q01DX005 (ip), vehicle: saline
  T/C: 103 % of control
dose: 200.0 mg/kg/injection, schedule: Q01DX005 (ip), vehicle: saline
  T/C: 102 % of control

## CCN(CC)CCNC1=C(Cl)C(=O)c2ccccc2C1=O
dose: 1.56 mg/kg/injection, schedule: Q01DX009 (ip), vehicle: saline
  T/C: 95 % of control
dose: 3.13 mg/kg/injection, schedule: Q01DX009 (ip), vehicle: saline
  T/C: 96 % of control
[4]
  T/C: 96 % of control
dose: 12.5 mg/kg/injection, schedule: Q01DX009 (ip), vehicle: distilled water + Tween-80
  T/C: 100 % of control
[5]
  T/C: 101 % of control

## O=c1c2ccccc2sc2c([N+](=O)[O-])ccc(NCCCC3CCCN4CCCCC34)c12 (stereo not drawn)
dose: 31.9 mg/kg/injection, schedule: Q01DX005 (ip), vehicle: saline with Tween-80
  T/C: 100 % of control
dose: 63.8 mg/kg/injection, schedule: Q01DX005 (ip), vehicle: saline with Tween-80
  T/C: 102 % of control
dose: 127.5 mg/kg/injection, schedule: Q01DX005 (ip), vehicle: saline with Tween-80
  T/C: 110 % of control

## CC1=C/N\C(C#N)=C(C#N)/N=C/C(C)=C\N\C(C#N)=C(C#N)/N=C\1
[6]
  T/C: 92 % of control
[7]
  T/C: 105 % of control
[8]
  T/C: 98 % of control

## OC(CN1CCCCC1)c1ccc(/C=C/c2ccc(Cl)cc2)cc1 (stereo not drawn)
[4]
  T/C: 100 % of control
[5]
  T/C: 95 % of control
dose: 25.0 mg/kg/injection, schedule: Q01DX009 (ip), vehicle: saline
  T/C: 96 % of control

## O=C(NC(ON1CCCCC1)C(=O)O)c1ccccc1 (stereo not drawn)
[6]
  T/C: 104 % of control
[7]
  T/C: 102 % of control
[8]
  T/C: 98 % of control
